According to patent publication US5110976A, “Insecticidal composition comprising more than one active ingredient” (priority 1985, dated 1992):
In brackets after ≈: the same amount, converted by molar mass.

Legend:
Tetranychus urticae = assay: Potter Tower spray on mite-infested leaves (Table 19); type: in vivo, mites (Tetranychus urticae); settings: Tetranychus urticae, 24 h, mortality after 24 hours; read-out: approx. LD50
Experimental: Leaves already infested with mites (Tetranychus urticae) were sprayed under Potter Tower. Mortality after 24 hours on the treated leaves was compared with the control.

Musca domestica [1] = assay: Comparative contact test (Table 15); type: in vivo, house fly (Musca domestica), imago; settings: 24 h
Experimental: (§1) The active ingredient is dissolved in a 1:2 mixture of oil and acetone; filter paper discs (Whatman No. 1, diameter 9 cm) are impregnated with the solutions of the corresponding stereoisomers and enantiomer-pairs, respectively. The acetone is allowed to evaporate, whereupon the insects are exposed to filter papers discs placed in Petri-dishes. Three parallels are used on each dose and 15 insects are placed into each Petri-dish. The percental mortality is determined after 24 hours. The corrected percent mortality is calculated by means of the Abbot Formula.
(§2) The comparative test of Ia, Ib and a 40:60 mixture of Ia:Ib is carried out on bean weevil (Acanthoscelides obtectus), flour-beetle, (Tribolium confusum), house fly (Musca domestica) and sheep maggot fly (Lucillia sericata). The test method described is Example 41.

Hyphantria cunea = assay: Topical test on fall webworm (Table 18); type: in vivo, fall wetworm (Hyphantria cunea), L7-L8 larvae; settings: for 24 hours' mortality: 1440 min
Experimental: The active ingredients are dissolved in 2-ethoxy-ethanol and the solutions are applied in the form of 0.2 μl droplets onto the back of fall wetworm (Hyphantria cunea) of L7 -L8 larvae stage. The treated worms are placed on strawberry leaves in Petri-dishes. The test is carried out by using […], 2 parallels and 10 insects for each dose. The killed worms are counted after 24 hours and the percental mortality rate is calculated.

Musca domestica [2] = assay: Filter paper disc contact test (Table 11); type: in vivo, house fly (Musca domestica)
Procedure, shortened: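 Stereoisomers in 1:2 oil/acetone were applied to 9 cm filter paper discs, the acetone evaporated, and discs placed in Petri dishes with 15 flies each, three replicates per dose. Mortality was scored at 24 h and corrected by Abbott's formula.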

T. confusum = assay: Activity as function of time, toxic symptoms (Table 16); type: in vivo, flour beetle (T. confusum), imagos
Procedure, shortened: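 T. confusum imagos exposed in Petri dishes to filter-paper discs impregnated with isomer solutions in 1:2 oil/acetone, acetone evaporated; 3 replicates of 15 insects per dose. Insects lying on their backs counted at successive time points, expressed as percent.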

tribolium confusum [3] = assay: Comparative contact test (Table 15); type: in vivo, flour-beetle (Tribolium confusum), imago; settings: 24 h
Experimental: as §1, §2

Tribolium confusum [4] = assay: Contact test, mixtures of Ia and Ib of various ratio (Table 13); type: in vivo, flour beetle (Tribolium confusum)
Experimental: as §1
In Table 13 the insecticidal effect of mixtures of enantiomer-pairs Ia and Ib of various ratio is shown on flour beetle (Tribolium confusum). The test method is that disclosed in Example 43.

Lucillia sericata = assay: Comparative contact test (Table 15); type: in vivo, sheep maggot fly (Lucillia sericata), imago; parameters: key: % mortality after 24 h, Abbott-corrected; settings: 1440 min
Experimental: as §1, §2

Acanthoscelides obtectus = assay: Comparative contact test (Table 15); type: in vivo, bean weevil (Acanthoscelides obtectus), imago; settings: Acanthoscelides obtectus, 24 h
Experimental: as §1, §2

Tribolium confusum [5] = assay: Contact test on Tribolium confusum (Table 12); type: in vivo; settings: Tribolium confusum, 24 h
Procedure, shortened: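 Compound in 1:2 oil/acetone impregnated onto 9 cm filter paper discs; after acetone evaporation, 15 insects per Petri dish exposed by contact, three replicates per dose. Mortality read at 24 hours and corrected by Abbott's formula.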

Colorado potato beetle = assay: Topical test on Colorado potato beetle (Table 14); type: in vivo, Colorado potato beetle (Leptinotersa decemlineata), imago
Experimental: In Table 14 the activity on Colorado potato beetle is shown.
The test materials are dissolved in 2-ethoxyethanol (Cellosolve). One 0.3 μl drop of the solution is applied to the abdominal sterna of the imago. The treatment is carried out by using 2 parallels and 10 insects for each dose. […]

`CC1(C)C(C=C(Cl)Cl)C1C(=O)OC(C#N)c1cccc(Oc2ccccc2)c1` (stereo not shown) [Ia:Ib = 4:6] gave an LC50 (Tetranychus urticae) of about 0.06 µg/mL (≈ 0.144 µM), a mortality at 20 µg/disc (Musca domestica [1]; 0.02 mg/disc) of 25% and a mortality at 70 µg/disc (Musca domestica [1]; 0.07 mg/disc) of 45%. It also gave a mortality at 220 µg/disc (Musca domestica [1]; 0.22 mg/disc) of 85%, a mortality at 670 µg/disc (Musca domestica [1]; 0.67 mg/disc) of 100% and a mortality at 2000 µg/disc (Musca domestica [1]; 2.0 mg/disc) of 100%. For the same compound, the mortality at 6000 µg/disc (Musca domestica [1]; 6.0 mg/disc) was 100%, the “24 hours' mortality” value (Hyphantria cunea; 0.023 (μg/disc)) was 40% and the “24 hours' mortality” value (Hyphantria cunea; 0.047 (μg/disc)) was 50%. For the same compound, the “24 hours' mortality” value (Hyphantria cunea; 0.094 (μg/disc)) was 55%, the mortality at 0.188 µg/disc (Hyphantria cunea; Hyphantria cunea, topical, 24 h, 0.188 (μg/disc)) was 65% and the mortality at 0.375 µg/disc (Hyphantria cunea; Hyphantria cunea, topical, 24 h, 0.375 (μg/disc)) was 75%. The mortality at 40 µg/disc (Musca domestica [2]; Musca domestica, 24 h, 0.04 mg/disc) was 41%, the mortality at 110 µg/disc (Musca domestica [2]; Musca domestica, 24 h, 0.11 mg/disc) was 81% and the mortality at 330 µg/disc (Musca domestica [2]; Musca domestica, 24 h, 0.33 mg/disc) was 100%. The mortality at 1000 µg/disc (Musca domestica [2]; Musca domestica, 24 h, 1.00 mg/disc) was 100%, the mortality at 3000 µg/disc (Musca domestica [2]; Musca domestica, 24 h, 3.00 mg/disc) was 100% and the comparative activity (Musca domestica [2]; mixture versus Ia) was “corresponds to that of the pure isomer Ia”. The “% of insects showing toxic symptoms” value (T. confusum; 30 minutes) was 0%, the “% of insects showing toxic symptoms” value (T. confusum; 30 minutes, 0.33 mg/disc) was 0% and the “% of insects showing toxic symptoms” value (T. confusum; 30 minutes, 1.00 mg/disc) was 50%. For the same compound, the “% of insects showing toxic symptoms” value (T. confusum; 30 minutes, 3.00 mg/disc) was 55%, the “% of insects showing toxic symptoms” value (T. confusum; 60 minutes) was 15% and the “% of insects showing toxic symptoms” value (T. confusum; 60 minutes, 0.33 mg/disc) was 85%. For the same compound, the “% of insects showing toxic symptoms” value (T. confusum; 60 minutes, 1.00 mg/disc) was 85%, the “% of insects showing toxic symptoms” value (T. confusum; 60 minutes, 3.00 mg/disc) was 100% and the “% of insects showing toxic symptoms” value (T. confusum; 120 minutes) was 30%. For the same compound, the “% of insects showing toxic symptoms” value (T. confusum; 120 minutes, 0.33 mg/disc) was 100%, the “% of insects showing toxic symptoms” value (T. confusum; 120 minutes, 1.00 mg/disc) was 100% and the “% of insects showing toxic symptoms” value (T. confusum; 120 minutes, 3.00 mg/disc) was 100%. The “% of insects showing toxic symptoms” value (T. confusum; 180 minutes) was 55%, the “% of insects showing toxic symptoms” value (T. confusum; 180 minutes, 0.33 mg/disc) was 100% and the “% of insects showing toxic symptoms” value (T. confusum; 180 minutes, 1.00 mg/disc) was 100%. The “% of insects showing toxic symptoms” value (T. confusum; 180 minutes, 3.00 mg/disc) was 100%, the mortality at 20 µg/disc (tribolium confusum [3]; 0.02 mg/disc) was 16% and the mortality at 70 µg/disc (tribolium confusum [3]; 0.07 mg/disc) was 80%. The mortality at 220 µg/disc (tribolium confusum [3]; 0.22 mg/disc) was 100%, the mortality at 670 µg/disc (tribolium confusum [3]; 0.67 mg/disc) was 100% and the mortality at 2000 µg/disc (tribolium confusum [3]; 2.0 mg/disc) was 100%. For the same compound, the mortality at 6000 µg/disc (tribolium confusum [3]; 6.0 mg/disc) was 100%, the “24 hours' mortality %” value (Tribolium confusum [4]; 0.02 mg/disc, 1440 min) was 14% and the “24 hours' mortality %” value (Tribolium confusum [4]; 0.06 mg/disc, 1440 min) was 53%. The “24 hours' mortality %” value (Tribolium confusum [4]; 0.25 mg/disc) was 100%, the “24 hours' mortality %” value (Tribolium confusum [4]; 1.00 mg/disc) was 100% and the mortality (Lucillia sericata; 0.02 mg/disc) was 18. The mortality (Lucillia sericata; 0.07 mg/disc) was 50, the mortality (Lucillia sericata; 0.22 mg/disc) was 60 and the mortality (Lucillia sericata; 0.67 mg/disc) was 75. It also gave a mortality (Lucillia sericata; 2.0 mg/disc) of 100, a mortality (Lucillia sericata; 6.0 mg/disc) of 100 and a mortality at 20 µg/disc (Acanthoscelides obtectus; 0.02 mg/disc) of 30%. The mortality at 70 µg/disc (Acanthoscelides obtectus; 0.07 mg/disc) was 55%, the mortality at 220 µg/disc (Acanthoscelides obtectus; 0.22 mg/disc) was 90% and the mortality at 670 µg/disc (Acanthoscelides obtectus; 0.67 mg/disc) was 100%. For the same compound, the mortality at 2000 µg/disc (Acanthoscelides obtectus; 2.0 mg/disc) was 100%, the mortality at 6000 µg/disc (Acanthoscelides obtectus; 6.0 mg/disc) was 100% and the mortality at 110 µg/disc (Tribolium confusum [5]; 0.11 mg/disc) was 61%. It also gave a mortality at 330 µg/disc (Tribolium confusum [5]; 0.33 mg/disc) of 89%, a mortality at 1000 µg/disc (Tribolium confusum [5]; 1.00 mg/disc) of 100% and a mortality at 3000 µg/disc (Tribolium confusum [5]; 3.00 mg/disc) of 100%. For the same compound, the “24 hours' mortality %” value (Colorado potato beetle; 0.05 μg/beetle) was 45%, the “24 hours' mortality %” value (Colorado potato beetle; 0.10 μg/beetle) was 60% and the “24 hours' mortality %” value (Colorado potato beetle; 0.20 μg/beetle) was 70%. The mortality at 0.4 µg/beetle (Colorado potato beetle; Leptinotarsa decemlineata, topical, read-out: 24 hours' mortality %, 0.40 μg/beetle) was 80%.
